Assay [1] has as its target T1, Tankyrase 1 (TNKS1) (Homo sapiens, UniProt O95271).
T1 construct: His6-TNKS1, MW=28.2 KDa (construct: 1088-1327, 1266M)
As to the kind of experiment: μHTS-TNKS-IWR2 TR-FRET Binding Assay (Example 71), TNKS1. Here is the method:
(§1) μHTS-TNKS-IWR2 TR-FRET Binding Assay (10 μL/well in BD1536-well plate, a single point)
(§2) Assay buffer 1a (AB1a) for TNKS dilution: 50 mM Tris, pH 7.4, 100 mM sodium chloride solution, 1 mM magnesium chloride solution, 1 mM DL-dithiothreitol solution, 0.2 mg/mL bovine serum albumin solution, 0.025% NP-40. Assay buffer 1b (AB 1b) for Biotin-IWR2 dilution: 50 mM Tris, pH 7.4, 100 mM sodium chloride solution, 1 mM magnesium chloride solution, 1 mM DL-dithiothreitol solution, 0.2 mg/mL bovine serum albumin solution, 0.05% NP-40 Assay buffer 1c (AB 1c) for compound dilution: 50 mM Tris, pH 7.4, 100 mM sodium chloride solution, 1 mM magnesium chloride solution, 1 mM DL-dithiothreitol solution, 0.2 mg/mL bovine serum albumin solution Assay buffer 2 (AB2) for Eu/APC: 50 mM Tris, pH 7.4, 100 mM sodium chloride solution, 1 mM magnesium chloride solution, 0.2 mg/mL bovine serum albumin solution
(§3) Transfer 3 μL/well of above solution (solution 1,2,3) to an empty assay plate (BD1536-well plate) as follows: TOTAL and cpd wells: Solution 1 (Biotin-IWR2): BLANK wells: Solution 2 (No Biotin-IWR2): POSITIVE CONTROL wells: Solution 3 (Biotin-IWR2XAV939) Transfer 3 μL/well of the above diluted compound solutions or compound dilution buffer to the above assay plate. Add 2 μL/well of 300 nM TNKS stock solution (4) to every well in the above assay plate. Centrifuge the assay plate at 2100 rpm for 2 min. Incubate the assay plate at 26° C. for 30 minutes. Add 2 μL/well 3.5 nMEu/50 nM APC solution (5) to every well in the above assay plate. Centrifuge the assay plate at 2100 rpm for 2 min. Incubate the assay plate at 26° C. for 60 min.

Assay [2] addresses T2, tankyrase 2 (His6-TNKS2) (Homo sapiens, UniProt Q9H2K2).
T2 construct: His6-tankyrase 2 (construct: 934-1166) (His6-TNKS2)
As to the kind of experiment: μHTS-TNKS-IWR2 TR-FRET Binding Assay (Example 71), TNKS2. The conditions noted are these: footnote 1: Tankyrase 1 and 2 inhibition assay in Example 71 (TR-FRET). Here is the method:
as §1
Biotin-4-((1S,2R,6S,7R)-3,5-Dioxo-4-aza-tricyclo[5.2.1.0*2,6*]dec-8-en-4-yl)-N-(4-methyl-quinolin-8-yl)-benzamide (Biotin-IWR2): 10 mM Biotin-IWR2 stock in DMSO, stored at −20° C. Positive control: 10 mM 2-(4-Trifluoromethyl-phenyl)-3,5,7,8-tetrahydro-thiopyrano[4,3-d]pyrimidin-4-one (XAV939) in DMSO, stored at −20° C.
as §2, §3
For orientation: Time-resolved FRET reads energy transfer from a long-lived donor to a nearby acceptor.

The target in assay [3] is T3, PARP1 (His6-PARP1, full length) (Homo sapiens, UniProt P09874).
T3 construct: His6-PARP1 (full length) can be substituted for His6-TNKS 1
As to the kind of experiment: TR-FRET Binding Assay (Example 71), PARP1. The conditions noted are these: TR-FRET assay of Example 71 with His6-PARP1. Here is the method:
as §1
Tankyrase 1 (TNKS1): 184.3 μM=5.2 mg/mL His6-TNKS1, MW=28.2 KDa (construct: 1088-1327, 1266M) in 20 mM Tris pH 8, 150 mM NaCl, 10% glycerol, and 0.5 mM TCEP. Alternatively, His6-tankyrase 2 (construct: 934-1166) (His6-TNKS2) or His6-PARP1 (full length) can be substituted for His6-TNKS 1.
as §2
Prepare Biotinylated IWR2 stock solution (3.33× stock) for TOTL and compound wells: 200 nM Biotin-IWR2 in 5% DMSO/AB1b buffer
Prepare BLANK well stock solution: 5% DMSO/AB1b buffer Prepare POSITIVE CONTROL well stock solution (3.33× stock): 200 nM XAV939 in 200 nM Biotin-IWR2/5% DMSO/AB1b buffer Prepare TNKS1 stock solution (5× stock): 300 nM TNKS in AB1a buffer. (Alternatively, use TNKS2 or PARP1 stock solutions.) Prepare Eu/APC stock solution (5× stock): 3.5 nM Eu-SA/50 nM APC-His6Ab in AB2 buffer.
Add 25 μL/well 1.5% DMSO/AB1c buffer in each compound well to the compound concentration at 74 μM in 8.8% DMSO/AB1c buffer or in the 2 μL DMSO CONTROL wells (BLANK, TOTAL and POSITIVE wells) in the compound plate. Transfer 3 μL/well of above solution (solution 1,2,3) to an empty assay plate (BD1536-well plate) as follows: TOTAL and cpd wells: Solution 1 (Biotin-IWR2): BLANK wells: Solution 2 (No Biotin-IWR2): POSITIVE CONTROL wells: Solution 3 (Biotin-IWR2XAV939) Transfer 3 μL/well of the above diluted compound solutions or compound dilution buffer to the above assay plate. Add 2 μL/well of 300 nM TNKS stock solution (4) to every well in the above assay plate. Centrifuge the assay plate at 2100 rpm for 2 min. Incubate the assay plate at 26° C. for 30 minutes. Add 2 μL/well 3.5 nMEu/50 nM APC solution (5) to every well in the above assay plate. Centrifuge the assay plate at 2100 rpm for 2 min. Incubate the assay plate at 26° C. for 60 min. Read the assay plate immediately at excitation wavelength of 330 nm and emission wavelength of […] in time resolved fluorescence mode.
. Representative compound data for the PARP1 assay is in TABLE 2 (below) Values are in μM.

T1 sequence (O95271 1088-1327): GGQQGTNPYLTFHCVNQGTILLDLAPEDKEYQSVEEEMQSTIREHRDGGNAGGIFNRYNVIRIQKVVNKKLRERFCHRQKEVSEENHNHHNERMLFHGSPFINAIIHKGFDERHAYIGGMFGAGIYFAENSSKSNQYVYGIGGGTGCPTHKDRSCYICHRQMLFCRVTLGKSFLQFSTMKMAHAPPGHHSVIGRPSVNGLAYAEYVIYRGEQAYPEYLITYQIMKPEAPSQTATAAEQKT
T2 sequence (Q9H2K2 934-1166): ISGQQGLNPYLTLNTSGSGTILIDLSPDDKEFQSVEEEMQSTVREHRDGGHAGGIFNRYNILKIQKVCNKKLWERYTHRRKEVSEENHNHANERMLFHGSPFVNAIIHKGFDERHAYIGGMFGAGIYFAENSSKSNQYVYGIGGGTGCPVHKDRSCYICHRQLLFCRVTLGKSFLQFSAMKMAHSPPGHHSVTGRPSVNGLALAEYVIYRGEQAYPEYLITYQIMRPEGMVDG
T3 sequence (P09874 whole entry, species assumed): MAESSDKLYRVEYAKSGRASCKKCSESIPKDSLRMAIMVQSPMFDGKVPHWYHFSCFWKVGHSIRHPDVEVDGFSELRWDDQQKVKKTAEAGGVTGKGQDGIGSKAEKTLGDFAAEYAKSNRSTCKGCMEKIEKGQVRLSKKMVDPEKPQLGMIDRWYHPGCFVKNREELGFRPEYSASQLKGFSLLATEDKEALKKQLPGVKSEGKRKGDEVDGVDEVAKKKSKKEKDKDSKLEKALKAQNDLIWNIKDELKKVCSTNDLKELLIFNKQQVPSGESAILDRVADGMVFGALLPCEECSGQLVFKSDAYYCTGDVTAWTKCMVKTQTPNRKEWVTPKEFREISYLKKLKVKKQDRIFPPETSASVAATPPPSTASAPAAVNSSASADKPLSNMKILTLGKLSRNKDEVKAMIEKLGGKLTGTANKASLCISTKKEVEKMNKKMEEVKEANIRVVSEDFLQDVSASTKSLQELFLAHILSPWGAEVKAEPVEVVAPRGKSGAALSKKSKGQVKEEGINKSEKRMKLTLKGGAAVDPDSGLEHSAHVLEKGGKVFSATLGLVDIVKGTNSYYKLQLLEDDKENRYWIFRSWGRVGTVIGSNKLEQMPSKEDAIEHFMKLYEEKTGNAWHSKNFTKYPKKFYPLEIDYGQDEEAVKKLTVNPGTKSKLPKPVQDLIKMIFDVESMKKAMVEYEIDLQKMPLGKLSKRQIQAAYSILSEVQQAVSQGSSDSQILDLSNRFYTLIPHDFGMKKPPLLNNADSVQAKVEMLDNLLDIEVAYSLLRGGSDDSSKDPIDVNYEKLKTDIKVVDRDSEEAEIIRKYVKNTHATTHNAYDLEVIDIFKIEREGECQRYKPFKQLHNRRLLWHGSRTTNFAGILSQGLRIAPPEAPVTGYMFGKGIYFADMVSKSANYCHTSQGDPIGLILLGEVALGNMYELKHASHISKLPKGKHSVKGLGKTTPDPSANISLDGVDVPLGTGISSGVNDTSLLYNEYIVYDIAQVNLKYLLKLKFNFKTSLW

Consider `CC(C)(C)C1Cc2[nH]c(=O)c3cccnc3c2CO1` (racemic) [Compound I-48, rac-2-tert-Butyl-1,2,4,10-tetrahydro-3-oxa-5,10-diaza-phenanthren-9-one], for which the IC50 in assay [1] was 34.6 nM; in assay [2] it was 55.4 nM; in assay [3] it was 437 nM.
The matching figures for `Cc1ccc2c(=O)[nH]c3c(c2n1)COC(C(C)(C)C)C3` (racemic) [Compound I-49, rac-2-tert-Butyl-6-methyl-1,2,4,10-tetrahydro-3-oxa-5,10-diaza-phenanthren-9-one]: 514 nM, 77.5 nM and 3050 nM.
The matching figures for `O=C(C1CCOCC1)N1CCC(C2Cc3[nH]c(=O)c4ccccc4c3CO2)CC1` (racemic) [Compound I-50, rac-2-[1-(Tetrahydro-pyran-4-carbonyl)-piperidin-4-yl]-1,2,4,10-tetrahydro-3-oxa-10-aza-phenanthren-9-one]: 35.6 nM, 44.2 nM and 104 nM.
Take `CC(C)(O)c1ccc2c(=O)[nH]c3c(c2c1)COC(C(C)(C)C)C3` (racemic) [Compound I-53, rac-2-tert-Butyl-6-(1-hydroxy-1-methyl-ethyl)-1,2,4,10-tetrahydro-3-oxa-10-aza-phenanthren-9-one]: the values for the IC50 in assay [1], in assay [2] and in assay [3] were 1100 nM, 13900 nM and above 50000 nM, respectively.
The corresponding values for `CC(C)(C)C1Cc2[nH]c(=O)c3ccc(C#N)cc3c2CO1` (racemic) [Compound I-56, rac-2-tert-Butyl-9-oxo-1,4,9,10-tetrahydro-2H-3-oxa-10-aza-phenanthrene-6-carbonitrile] are 133 nM, 1500 nM and above 50000 nM.
The matching figures for `CC1(C(=O)N2CCC(C3Cc4[nH]c(=O)c5cccnc5c4CO3)CC2)CC1` (racemic) [Compound I-57, rac-2-[1-(1-methyl-cyclopropanecarbonyl)-piperidin-4-yl]-1,2,4,10-tetrahydro-3-oxa-5,10-diaza-phenanthren-9-one]: 40.2 nM, 45.5 nM and 38.6 nM.
The corresponding values for `Cc1cncc2c(=O)[nH]c3c(c12)COC(C(C)(C)C)C3` (racemic) [Compound I-58, rac-7-tert-Butyl-4-methyl-5,7,8,9-tetrahydro-6-oxa-2,9-diaza-phenanthren-10-one] are 25.9 nM, 25.7 nM and 328 nM.
For `Cc1cccc2c(=O)[nH]c3c(c12)COC(C1CCOCC1)C3` (racemic) [Compound I-60, rac-5-Methyl-2-(tetrahydro-pyran-4-yl)-1,2,4,10-tetrahydro-3-oxa-10-aza-phenanthren-9-one], the IC50 turned out to be 24.1 nM in assay [1], 17.9 nM in assay [2] and 79.7 nM in assay [3].
Turning to `Cc1cccc2c(=O)[nH]c3c(c12)COC(C1CCN(C(=O)C2(C)CC2)CC1)C3` (racemic) [Compound I-61, rac-5-Methyl-2-[1-(1-methyl-cyclopropanecarbonyl)-piperidin-4-yl]-1,2,4,10-tetrahydro-3-oxa-10-aza-phenanthren-9-one], the concentration for half-maximal inhibition (IC50) in assay [1] was found to be 17.5 nM; in assay [2], 21 nM; in assay [3], 25.9 nM.
`Cc1cccc2c(=O)[nH]c3c(c12)COC(C1CCN(C(=O)OC(C)(C)C)CC1)C3` (racemic) [Compound I-62, rac-4-(5-Methyl-9-oxo-1,4,9,10-tetrahydro-2H-3-oxa-10-aza-phenanthren-2-yl)-piperidine-1-carboxylic acid tert-butyl ester]: the results for the IC50 in assay [1], in assay [2] and in assay [3] were 26.5 nM, 23.7 nM and 38.1 nM, respectively.
As for `Cc1cccc2c(=O)[nH]c3c(c12)COC(C1CCN(C(=O)C2CC2)CC1)C3` (racemic) [Compound I-63, rac-2-(1-Cyclopropanecarbonyl-piperidin-4-yl)-5-methyl-1,2,4,10-tetrahydro-3-oxa-10-aza-phenanthren-9-one], the concentration for half-maximal inhibition (IC50) amounted to 28.3 nM in assay [1], 26.9 nM in assay [2] and 52.6 nM in assay [3].
As to `Cc1cccc2c(=O)[nH]c3c(c12)COC(C(C)(C)O)C3` (racemic) [Compound I-64, rac-2-(1-Hydroxy-1-methyl-ethyl)-5-methyl-1,2,4,10-tetrahydro-3-oxa-10-aza-phenanthren-9-one], the IC50 in assay [1] came out at 32 nM; in assay [2], 36.7 nM; in assay [3], 44.1 nM.
The corresponding values for `CC1(C2Cc3[nH]c(=O)c4ccccc4c3CO2)COC1` (racemic) [Compound I-65, rac-2-(3-Methyl-oxetan-3-yl)-1,2,4,10-tetrahydro-3-oxa-10-aza-phenanthren-9-one] are 81.4 nM, 101 nM and 43 nM.
The corresponding values for `O=c1[nH]c2c(c3ccccc13)CO[C@H](C1CCCC1)C2` (single isomer, unassigned) [Compound I-11] are 31.5 nM, 102 nM and 37.1 nM.
The corresponding values for `O=c1[nH]c2c(c3ccccc13)CO[C@@H](C1CCCC1)C2` (single isomer, unassigned) [Compound I-12] are 16 nM, 19.4 nM and 30.6 nM.
Regarding `CC(C)(C)OC(=O)N1CCC([C@@H]2Cc3[nH]c(=O)c4ccccc4c3CO2)CC1` (single isomer, unassigned) [Compound I-54], the figures for the IC50 in assay [1], in assay [2] and in assay [3] were 21.4 nM, 25.7 nM and 115 nM, respectively.
The matching figures for `CC(C)(C)OC(=O)N1CCC([C@H]2Cc3[nH]c(=O)c4ccccc4c3CO2)CC1` (single isomer, unassigned) [Compound I-55]: 43.2 nM, 99.2 nM and 125 nM.
The corresponding values for `O=c1[nH]c2c(c3ccccc13)COCC2` [Compound I-3, 1,2,4,10-Tetrahydro-3-oxa-10-aza-phenanthren-9-one] are 421 nM, 636 nM and 281 nM.
As for `O=c1[nH]c2c(c3ccccc13)COC1(CCCC1)C2` [Compound I-9, 1,5′-Dihydrospiro[cyclopentane-1,3′-pyrano[4,3-c]isoquinolin]-6′(4′H)-one], the values for the IC50 in assay [1], in assay [2] and in assay [3] were 72.9 nM, 144 nM and 2270 nM, respectively.

The IC50 is the midpoint of a concentration-inhibition curve. Higher therefore signals a need for much substance.

Source of the values: patent publication US20140121231A1, “PYRANOPYRIDONE INHIBITORS OF TANKYRASE” (Hoffmann-La Roche, Inc., priority 2012, published 2014).
